System: patients with advanced solid tumors
Experiment: First-in-human phase 1 dose-escalation study: safety, DLTs, adverse events
Type: in vivo
Description: This multicenter first-in-human dose-escalation phase 1 study (clinicaltrials.gov identifier: NCT03272256) was designed to determine the MTD or RP2D and to evaluate the safety and tolerability of IM156. Secondary endpoints included PK characteristics, efficacy assessment (objective response rate [ORR], disease control rate [DCR], duration of response [DoR] and progression-free survival [PFS]). Furthermore, exploratory objectives included identification and profiling of IM156 metabolites, evaluations of exploratory PD markers of IM156, and evaluations of any potential relationship between putative biomarkers and safety/efficacy parameters of IM156. The study was conducted in accordance with Good Clinical Practice, the International Council for Harmonisation, and guidelines governing clinical study conduct and the ethical principles originating from the Declaration of Helsinki. The study was approved by each Institutional Review Board and patients provided written informed consent. Patients were enrolled at three sites in South Korea.
The initial dose and schedule of IM156 was chosen based on animal toxicology studies. […] IM156 was administered in the fasted state, with no food for at least 2 h before and 1 h after dosing.
Three DLT-evaluable patients were enrolled at each dose level. If there were no DLTs or other prohibitive adverse events (AEs), the Safety Committee was allowed to recommend escalation to the next highest dose level. If 1 DLT occurred in the first 3 DLT-evaluable patients, enrollment in that cohort was expanded to an additional 3 DLT-evaluable patients; if ≥ 2 DLTs were reported in a cohort, that dose was considered above the MTD.
Safety was assessed through vital signs, weight, laboratory assessments, physical examinations, electrocardiogram, and reporting of AEs as graded by the National Cancer Institute’s Common Terminology Criteria for Adverse Events v4.03 (NCI-CTCAE).
DLTs were defined as the following AEs if they were attributed as related to IM156: asymptomatic grade 4 neutropenia lasting for ≥ 5 days; febrile neutropenia, regardless of grade; grade 4 thrombocytopenia or grade 3 thrombocytopenia with bleeding; any grade ≥ 3 non-hematologic AE (except grade 3 hypertension and grade 3 nausea, vomiting or diarrhea for which proper measures for prevention and treatment were not implemented, and alopecia); blood lactate levels > 5 mmol; grade ≥ 2 AE prohibiting dosing of IM156 for ≥ 21 continuous days except for alterations in serum calcium or phosphorus levels. The safety analysis includes all patients who received at least one dose of study drug.
The safety population was defined as all patients who received at least one dose of IM156. The PK population was not defined in the protocol but included all patients with sufficient PK data to perform adequate PK modeling. The efficacy population included all patients who underwent at least one tumor imaging assessment while receiving IM156. Safety was assessed using descriptive statistics (e.g., DLTs, AEs, laboratory tests, physical examination, 12-lead ECG). The incidence and number of events were reported for the DLTs observed in Cycle 1 per dose group. […] Adverse events and TRAEs were standardized with the System Organ Class and the Preferred Term using the Medical Dictionary for Regulatory Activities v23.0. In addition, TEAEs, serious adverse events (SAEs), TEAE severity, and TEAEs leading to withdrawal were presented by dose group. Efficacy data were to be presented by Waterfall and Swim Lane plots. Time to event endpoints (e.g., DoR, PFS) were determined using Kaplan–Meier estimations with the median value for each endpoint summarized.

[1] = all dose level/grade cells not in own entries

## NC(=Nc1ccc(OC(F)(F)F)cc1)N=C(N)N1CCCC1 [IM156]
DL7 1200 mg orally daily (n=4)
  TEAE Purpura grade 2: 0
  TEAE Purpura grade 3: 0
  TEAE Purpura grade 4: 0
  TEAE Urinary retention grade 1: 0
  TEAE Urinary retention grade 2: 0
  TEAE Urinary retention grade 3: 0
  TEAE Urinary retention grade 4: 0
  TEAE Urinary tract disorder grade 1: 0
  TEAE Urinary tract disorder grade 2: 1
  TEAE Urinary tract disorder grade 3: 0
  TEAE Urinary tract disorder grade 4: 0
Total
  TEAE Adrenal insufficiency grade 1: 0
  TEAE Adrenal insufficiency grade 2: 1
  TEAE Adrenal insufficiency grade 3: 0
  TEAE Adrenal insufficiency grade 4: 0
  TEAE Anaemia grade 1: 0
  TEAE Anaemia grade 2: 3
  TEAE Anaemia grade 3: 2
  TEAE Anaemia grade 4: 0
  TEAE Appendicitis perforated grade 1: 0
  TEAE Appendicitis perforated grade 2: 0
  TEAE Appendicitis perforated grade 3: 1
  TEAE Appendicitis perforated grade 4: 0
  TEAE Back pain grade 1: 0
  TEAE Back pain grade 2: 2
  TEAE Back pain grade 3: 0
  TEAE Back pain grade 4: 0
  TEAE Cystitis grade 1: 0
  TEAE Cystitis grade 2: 1
  TEAE Cystitis grade 3: 0
  TEAE Cystitis grade 4: 0
  TEAE Dry skin grade 1: 0
  TEAE Dry skin grade 2: 1
  TEAE Dry skin grade 3: 0
  TEAE Dry skin grade 4: 0
  TEAE Flank pain grade 1: 0
  TEAE Flank pain grade 2: 1
  TEAE Flank pain grade 3: 0
  TEAE Flank pain grade 4: 0
  TEAE Hypertension grade 1: 0
  TEAE Hypertension grade 2: 1
  TEAE Hypertension grade 3: 0
  TEAE Hypertension grade 4: 0
  TEAE Hypotension grade 1: 0
  TEAE Hypotension grade 2: 1
  TEAE Hypotension grade 3: 0
  TEAE Hypotension grade 4: 0
  TEAE Insomnia grade 1: 2
  TEAE Insomnia grade 2: 1
  TEAE Insomnia grade 3: 0
  TEAE Insomnia grade 4: 0
  TEAE Pain in extremity grade 1: 1
  TEAE Pain in extremity grade 2: 1
  TEAE Pain in extremity grade 3: 0
  TEAE Pain in extremity grade 4: 0
  TEAE Pruritus grade 1: 1
  TEAE Pruritus grade 2: 0
  TEAE Pruritus grade 3: 0
  TEAE Pruritus grade 4: 0
  TEAE Psychiatric disorders grade 1: 2
  TEAE Psychiatric disorders grade 2: 1
  TEAE Psychiatric disorders grade 3: 0
  TEAE Psychiatric disorders grade 4: 0
  TEAE Purpura grade 1: 1
  TEAE Purpura grade 2: 0
  TEAE Purpura grade 3: 0
  TEAE Purpura grade 4: 0
  TEAE Urinary retention grade 1: 0
  TEAE Urinary retention grade 2: 1
  TEAE Urinary retention grade 3: 0
  TEAE Urinary retention grade 4: 0
  TEAE Urinary tract disorder grade 1: 0
  TEAE Urinary tract disorder grade 2: 1
  TEAE Urinary tract disorder grade 3: 0
  TEAE Urinary tract disorder grade 4: 0
Total, N = 22
  TRAE Abdominal Pain, > G3 (patients): 0
  TRAE Abdominal Pain, All grades (patients): 2
  TRAE Blood Lactic Acid increased, > G3 (patients): 0
  TRAE Blood Lactic Acid increased, All grades (patients): 2
  TRAE Constipation, > G3 (patients): 0
  TRAE Constipation, All grades (patients): 2
  TRAE Decreased appetite, > G3 (patients): 0
  TRAE Diarrhoea, > G3 (patients): 0
  TRAE Diarrhoea, All grades (patients): 10
  TRAE Fatigue, > G3 (patients): 0
  TRAE Fatigue, All grades (patients): 4
  TRAE Insomnia, > G3 (patients): 0
  TRAE Insomnia, All grades (patients): 2
  TRAE Nausea, > G3 (patients): 3
  TRAE Nausea, All grades (patients): 15
  TRAE Vomiting, > G3 (patients): 0
  TRAE Vomiting, All grades (patients): 9
Total, all dose levels
  TEAE Abdominal discomfort, grade 1: 1
  TEAE Abdominal distension, grade 2: 1
  TEAE Abdominal pain upper, grade 2: 1
  TEAE Abdominal pain, grade 1: 2
  TEAE Abdominal pain, grade 2: 3
  TEAE Abdominal pain, grade 3: 1
  TEAE Akathisia, grade 2: 1
  TEAE Alanine aminotransferase increased, grade 1: 3
  TEAE Alanine aminotransferase increased, grade 3: 1
  TEAE Ascites, grade 1: 1
  TEAE Aspartate aminotransferase increased, grade 1: 2
  TEAE Aspartate aminotransferase increased, grade 2: 1
  TEAE Aspartate aminotransferase increased, grade 3: 1
  TEAE Asthenia, grade 1: 3
  TEAE Blood alkaline phosphatase increased, grade 2: 1
  TEAE Blood alkaline phosphatase increased, grade 3: 1
  TEAE Blood creatinine increased, grade 1: 3
  TEAE Blood lactic acid increased, grade 1: 2
  TEAE Chest pain, grade 1: 1
  TEAE Constipation, grade 1: 5
  TEAE Constipation, grade 2: 1
  TEAE Cough, grade 1: 3
  TEAE Decreased appetite, grade 1: 3
  TEAE Decreased appetite, grade 2: 1
  TEAE Diarrhoea, grade 1: 9
  TEAE Diarrhoea, grade 2: 3
  TEAE Dysesthesia, grade 1: 1
  TEAE Fatigue, grade 1: 2
  TEAE Fatigue, grade 2: 4
  TEAE Gamma-glutamyltransferase increased, grade 2: 1
  TEAE Gamma-glutamyltransferase increased, grade 3: 1
  TEAE Gastritis, grade 1: 1
  TEAE Gastrointestinal pain, grade 1: 1
  TEAE Gastrointestinal pain, grade 2: 1
  TEAE Headache, grade 1: 1
  TEAE Headache, grade 2: 1
  TEAE Hemoptysis, grade 2: 1
  TEAE Hyperkalaemia, grade 3: 1
  TEAE Hypoalbuminaemia, grade 2: 2
  TEAE Hypocalcemia, grade 2: 1
  TEAE Ileus, grade 2: 1
  TEAE Ileus, grade 3: 1
  TEAE Influenza like illness, grade 1: 1
  TEAE Large intestinal obstruction, grade 2: 1
  TEAE Lethargy, grade 2: 1
  TEAE Nausea, grade 1: 8
  TEAE Nausea, grade 2: 5
  TEAE Nausea, grade 3: 3
  TEAE Neutrophil count decreased, grade 4: 1
  TEAE Obstruction gastric, grade 3: 1
  TEAE Oedema peripheral, grade 2: 1
  TEAE Oropharyngeal pain, grade 1: 1
  TEAE Pain, grade 2: 1
  TEAE Peripheral sensory neuropathy, grade 1: 1
  TEAE Platelet count decreased, grade 1: 1
  TEAE Pleural effusion, grade 2: 1
  TEAE Proctalgia, grade 2: 1
  TEAE Pyrexia, grade 1: 5
  TEAE Pyrexia, grade 2: 1
  TEAE Toothache, grade 1: 1
  TEAE Vomiting, grade 1: 10
  TEAE Vomiting, grade 2: 1
[1]
  TEAE Abdominal discomfort, dose level/grade cells without event: 0
  TEAE Abdominal distension, dose level/grade cells without event: 0
  TEAE Abdominal pain upper, dose level/grade cells without event: 0
  TEAE Abdominal pain, dose level/grade cells without event: 0
  TEAE Akathisia, dose level/grade cells without event: 0
  TEAE Alanine aminotransferase increased, dose level/grade cells without event: 0
  TEAE Ascites, dose level/grade cells without event: 0
  TEAE Aspartate aminotransferase increased, dose level/grade cells without event: 0
  TEAE Asthenia, dose level/grade cells without event: 0
  TEAE Blood alkaline phosphatase increased, dose level/grade cells without event: 0
  TEAE Blood creatinine increased, dose level/grade cells without event: 0
  TEAE Blood lactic acid increased, dose level/grade cells without event: 0
  TEAE Chest pain, dose level/grade cells without event: 0
  TEAE Constipation, dose level/grade cells without event: 0
  TEAE Cough, dose level/grade cells without event: 0
  TEAE Decreased appetite, dose level/grade cells without event: 0
  TEAE Diarrhoea, dose level/grade cells without event: 0
  TEAE Dysesthesia, dose level/grade cells without event: 0
  TEAE Fatigue, dose level/grade cells without event: 0
  TEAE Gamma-glutamyltransferase increased, dose level/grade cells without event: 0
  TEAE Gastritis, dose level/grade cells without event: 0
  TEAE Gastrointestinal pain, dose level/grade cells without event: 0
  TEAE Headache, dose level/grade cells without event: 0
  TEAE Hemoptysis, dose level/grade cells without event: 0
  TEAE Hyperkalaemia, dose level/grade cells without event: 0
  TEAE Hypoalbuminaemia, dose level/grade cells without event: 0
  TEAE Hypocalcemia, dose level/grade cells without event: 0
  TEAE Ileus, dose level/grade cells without event: 0
  TEAE Influenza like illness, dose level/grade cells without event: 0
  TEAE Large intestinal obstruction, dose level/grade cells without event: 0
  TEAE Lethargy, dose level/grade cells without event: 0
  TEAE Nausea, dose level/grade cells without event: 0
  TEAE Neutrophil count decreased, dose level/grade cells without event: 0
  TEAE Obstruction gastric, dose level/grade cells without event: 0
  TEAE Oedema peripheral, dose level/grade cells without event: 0
  TEAE Oropharyngeal pain, dose level/grade cells without event: 0
  TEAE Pain, dose level/grade cells without event: 0
  TEAE Peripheral sensory neuropathy, dose level/grade cells without event: 0
  TEAE Platelet count decreased, dose level/grade cells without event: 0
  TEAE Pleural effusion, dose level/grade cells without event: 0
  TEAE Proctalgia, dose level/grade cells without event: 0
  TEAE Pyrexia, dose level/grade cells without event: 0
  TEAE Toothache, dose level/grade cells without event: 0
  TEAE Vomiting, dose level/grade cells without event: 0
All doses
  days of interruption due to a TEAE, range: 2 to 11 days
  median number of days of interruption due to a TEAE: 3 days
  number of SAEs reported: Nine
  number of laboratory AEs: 28
All doses, N = 22
  Grade 3 nausea (TRAE), percent of patients: 14%
  TRAE abdominal pain, percent of patients: 9%
  TRAE constipation, percent of patients: 9%
  TRAE diarrhea, percent of patients: 46%
  TRAE emesis (vomiting), percent of patients: 41%
  TRAE fatigue, percent of patients: 18%
  TRAE nausea, percent of patients: 68%
  TRAEs grade 3 or higher, percent of patients: 14%
  patients in whom nausea and emesis required anti-emetic medications: 14 patients
  patients in whom nausea and emesis required anti-emetic medications, percent: 64%
  patients with SAEs: 8 patients
  patients with TRAEs: 19 patients
  patients with TRAEs, percent: 86%
  patients with a TEAE leading to dose interruption: 7 patients
  patients with a TEAE leading to dose interruption, percent: 32%
  patients with at least one TEAE: 22 patients
  patients with at least one TEAE, percent: 100%
  patients with gastrointestinal (GI) TRAEs: 18 patients
  patients with gastrointestinal (GI) TRAEs, percent: 82%
  total number of TEAEs reported: 146
All doses, N = 22, Grade 1
  TRAE blood lactate (lactic acid) increased, percent of patients: 9%
Dose level 1, 100 mg QOD oral, 3 patients
  Dose-limiting toxicity: 0
Dose level 2, 200 mg QOD oral, 3 patients
  Dose-limiting toxicity: 0
Dose level 3, 400 mg QOD oral, 3 patients
  Dose-limiting toxicity: 0
Dose level 4, 800 mg QOD oral, 3 patients
  Dose-limiting toxicity: 0
Dose level 5, 1,200 mg QOD oral, 3 patients
  Dose-limiting toxicity: 0
Dose level 6, 800 mg QD oral, 3 patients
  Dose-limiting toxicity: 0
Dose level 7, 1,200 mg QD oral, 4 patients
  Dose-limiting toxicity: 0
Grade 3 nausea at 1,200 mg QOD
  SAEs attributed to IM156: 1
Of 28 laboratory AEs
  laboratory AEs considered not related to IM156: 26
  laboratory AEs considered not related to IM156, percent: 93%
oral, QD
  recommended phase 2 dose (RP2D): 800 mg
Per protocol, 100 to 1,200 mg QOD or QD
  maximum tolerated dose (MTD): not reached

Reference: paper PMC9395488, “First-in-human study of IM156, a novel potent biguanide oxidative phosphorylation (OXPHOS) inhibitor, in patients with advanced solid tumors” (Investigational New Drugs, 2022)
